Data set [1] in a line: Peptide analyses: oxidation state by discontinuous Tris/Tricine PAGE with densitometry. It is filed as physicochemical. The following applies: for peptide existing as monomers: densitometric analysis; for peptide existing as monomers / oxidation state of the peptide: no reducing agent; for oxidation state of the peptide: reconstituted in PBS (pH 7.4), Tris/Tricine PAGE. The procedure:
Peptide analyses. Synthetic 7-mer peptides Hel-S (RRSLWDQ, SEQ ID NO:10), Hel-Cs (DLRQCWR, SEQ ID NO:27) and Hel-C (RRCLWDQ, SEQ ID NO:2) were analysed by discontinuous PAGE according to the method of Schagger and von Zagau with modifications. Briefly, 2.5 µg of each lyophilized peptide reconstituted in pure H2O was mixed with a reducing agent-free loading buffer (0.1 M Tris, 20% glycerol, 8% SDS and 0.02% Coomassie blue G-250), incubated at 80°C for 3 minutes and loaded onto a 17.5% Tris/Tricine gel. Samples were resolved at 20 mAper gel until stacked (1-2 hours) and at 35 mA for 16 hours through the resolving gel. The gel was fixed by incubation in a 5% glutaraldehyde solution for 1 hour and then stained with Coomassie Blue-R250. Peptide monomer/dimer ratios were calculated by densitometry using Quantity One® software (BioRad, Hercules, CA (USA)). To evaluate the redox states of cysteine-containing peptides further, reduced Glutathione (GSH) (Sigma, UK), β-mercaptoethanol and dithiothreitol (DTT) were included in the sample loading buffer at concentrations ranging from 0 to 400 mM, and the samples were resolved and analysed as described above.
Peptide Analyses. We analysed the oxidation states of the synthetic peptides Hel-S, Hel-Cs and Hel-C following reconstitution in PBS (pH 7.4) by high resolution Tris/Tricine PAGE (resolving buffer pH = 8.0). As expected, in aqueous solution at close to neutral pH, the wild-type CD4-mimetic peptide Hel-S consisted of a pure monomer of molecular weight equal to approximately 1 kDa (predicted Mw = 976 g/mol). […] The latter are evident as bands of approximately 2 kDa, which presumably result from intermolecular disulfide bond formation. […] We then treated Hel-C with the thiol-containing reducing compounds β-mercaptoethanol (β-ME) and 1,4-dithiothreitol (DTT) to determine relative effects on cysteine oxidation in this peptide.

The subject of data set [2] is gp120BaL. Put plainly: Epitope occlusion assay (ELISA): competition with anti-gp120 MAbs for immobilized gp120. As to conditions: for effect on binding of MAb 654-30D to gp120: CD4bs-directed MAb 654-30D 0.2 nM; for effect on binding of MAb 654-30D to gp120 / effect on binding of MAb b12 to gp120 / effect on binding of MAb 2G12 to gp120 / effect on binding of MAb B4a1 to gp120: 2dCD4 0 to 1 µM or peptides 0 to 1 mM; for effect on binding of MAb b12 to gp120: CD4bs-directed MAb b12 0.2 nM; for effect on binding of MAb 2G12 to gp120: CD4bs-independent MAb 2G12 0.2 nM; for effect on binding of MAb B4a1 to gp120: CD4bs-independent MAb F425 B4a1 (V3 loop) 0.2 nM. It is filed as binding, HIV-1. In general terms: In an ELISA, binding on a coated surface is turned into a signal by an enzyme label.

Data set [3] relates to recombinant gp120BaL. Put plainly: Electrophoretic mobility shift assay (EMSA) with [14C]-acetylated peptides, scintillation counting of excised gp120. As to conditions: for peptide associated with excised gp120: 5 µM gp120BaL, 500 µM radiolabeled peptide, no reducing agent. Format: binding, HIV-1. The procedure: Peptide N-terminal [^14C]-Acetylation. Hel-S, Hel-Cs and Hel-C were radioactively labeled by N-terminal acetylation according to the method of Fraenkel-Conrat and Colloms with modifications. Briefly, peptides were reconstituted in an ice cold saturated solution of sodium acetate (> 3 M) to a concentration of 5 mM. [^14C]-Acetic anhydride (specific activity 116 mCi/mmol, Amersham Biosciences, UK) was then added to 100 µl of the reconstituted peptide solution in two 1 µl installments over 15 minutes, and the labeling reactions were incubated for 2 hours on ice. After addition of the final acetic anhydride installment, the reaction concentrations of both peptide and acetic anhydride were 5 mM, and the samples contained 1% toluene and 500 nCi/µl of [^14C]. An equal volume (100 µl) of ice cold PBS (pH 7.4) was then added to each reaction. For buffer exchange and removal of unincorporated radiolabel, the [^14C]-labeled peptides were purified chromatographically using Sephadex G-10 spin columns (Sigma, UK) equilibrated in PBS (pH 7.4). The concentration of the purified labeled peptides was determined by measuring A280, and the labeling efficiencies were analysed by discontinuous PAGE and fluorescence autoradiography, as well as by liquid scintillation counting using Packard Tri-Carb 2200 Liquid Scintillation Analyzer. Labeled peptides were stored in 50 µl aliquots at -80°C.
Electrophoretic Mobility Shift Assay (EMSA). Peptide-gp120 binding reactions were set up in 50 µl and contained 5 µM of pure recombinant gp120BaL and 500 µM of radio labeled Hel-S, Hel-Cs or Hel-C in PBS (pH 7.4). Reactions were incubated at 25°C for 3 hours and then stopped by the addition of an equal volume (50 µl) of either reducing agent-free loading buffer (0.1 M Tris, 20% glycerol, 8% SDS and 0.02% Coomassie blue G-250) or the same buffer containing 1, 10 or 100 mM of DTT. The samples were incubated at 80°C for 3 minutes before loading on a 20 × 20 cm 6 - 20% gradient Tris/Tricine polyacrylamide gel, and were resolved at a constant 40 V for 16 hours at room temperature. After electrophoresis, the gel was rinsed thoroughly with H2O and then stained lightly by incubation in a solution containing 10% methanol, 10% acetic acid and 0.02% Coomassie Blue R-250 for 10 minutes with gentle shaking. The gel was rinsed with H20, and bands corresponding to gp120 were excised using a gel punch and placed in 1.5 ml microcentrifuge tubes. The gp120-containing polyacrylamide slices were solubilized by incubation at 37°C for 16 hours in 400 µl of a solution containing 30% H2O2 and 0.03% ammonium hydroxide. The dissolved polyacrylamide samples were added to 2 ml of Aquasol-2 scintillation cocktail (Perkin Elmer, USA), and radioactive emissions expressed as counts per minute (cpm) measured by scintillation counting.
Hel-C Binds gp120 through disulfide linkage on gp120. We adopted two independent approaches to evaluate the potential of Hel-C to bind recombinant gp120. First, we used an electrophoretic mobility shift assay (EMSA) to detect gp120-bound peptides following resolution of peptide/protein mixtures on denaturing gradient polyacrylamide gels. This method also enabled us to determine whether the mechanism of binding could be related to the establishment of disulphide bonds between the peptides and target gp120, by measuring the proportion of bound peptide in response to increasing doses of DTT. For detection, we decided to incorporate as small a label as possible into the peptide, so that steric effects of the labeling procedure would be minimal (such as would be the case with larger fluorescent/antigenic tags), and that the peptide would be able to adopt a secondary structure as close as possible to the R59-Q64 α-helix chain in CD4. We therefore labeled Hel-C and the control peptides Hel-S and Hel-Cs with [^14C]-acetic anhydride, which incorporated a single [^14C]-acetyl group on the peptide N-termini. […]

Data set [4] has as its system recombinant gp120BaL. The experiment in a line: Surface plasmon resonance (Biacore 3000) on immobilized gp120. It is filed as binding, HIV-1. The procedure: Surface Plasmon Resonance. All surface Plasmon resonance (SPR) experiments were performed on a BIA3000 optical biosensor (Biacore Inc., Uppsala, Sweden). Recombinant gp120BaL was immobilized on CM5 sensor chips by amine coupling according to the manufacturer's instructions. Briefly, a solution of 0.2 M EDC and 0.05 M NHS was used to activate carboxyl groups on the sensor surface at a flow rate of 5 µL/min for 10 minutes. Recombinant gp120BaL, dissolved in 100 mM sodium acetate buffer (pH 5.5) to a final concentration of 0.05 µM, was passed over the sensor chip surface at a flow rate of 5 µL/min until an immobilization level of 5000 RU was achieved. Excess carboxyl groups were capped by injection of 1 M ethanolamine (pH 8.0) at a flow rate of 5 µL/min for 5 minutes. Unbound ligand was removed by injecting 10 mM glycine (pH 2.5) at a flow rate of 5 µL/min for 2 minutes. In all experiments, the neighbouring flow cell was treated as mentioned above without the immobilization of gp120BaL, and this served as a reference surface. Prior to all experiments, the functionalities of the gp120 surfaces were tested by binding sCD4 at 500 nM in HEPES-buffered saline supplemented with 0.15 M NaCl (HBS-N, pH7.4). Analyte solutions were prepared in HBS-N at least 30 minutes prior to injection. All binding experiments were performed in duplicate at 25°C. For peptide binding analyses, increasing concentrations of peptide (from 0 to 500 µM) were passed over the surface at a flow rate of 5 µL/min, with a 5 minute association phase and a 6 minute dissociation phase. Surfaces were regenerated with a 20 mM sodium hydroxide (NaOH) solution between consecutive peptide analyses. The integrity of the surfaces was tested after each regeneration for sCD4 binding. Buffer injections and control surface binding were subtracted for all reported data.
Recombinant gp120BaL was immobilized on CM5 sensorchips and exposed to increasing concentrations of Hel-S, Hel-Cs or Hel-C.
The reasons for the slight difference are likely to be related to the different target gp120s used in these studies. […] Our data thus fit to a direct binding model consistent with 1:1 stoichiometry, and closely match previously published results.

As for DLRQCWR [Hel-Cs], in data set [1], the “peptide existing as monomers” value is given as “less than 10%”; the “oxidation state of the peptide” value was “mixture of monomers and dimers”. Further, in data set [2], the “effect on binding of MAb 654-30D to gp120” value is listed as “did not compete”, the “effect on binding of MAb b12 to gp120” value was “did not compete”, the “effect on binding of MAb 2G12 to gp120” value was “did not compete” and the “effect on binding of MAb B4a1 to gp120” value is given as “did not compete”. The “effect on binding of MAb b12 to gp120” value in data set [2] (listed as scrambled) is “does not”. In data set [3], the “peptide associated with excised gp120” value is on record as “small amount”.
RINNIPWSEAMM [12p1, reference compound]: in data set [4] (5000 RU gp120BaL surface), the “calculated Rmax” value is listed as “approximately 67 RU”. For the same substance, in data set [4] (just over 100 µM peptide, 5000 RU gp120 BaL surface), the amount bound result is listed as “approximately 45 RU”.
As for “RRCLWDQ [Hel-C, linear CD4-mimetic 7-mer peptide, R58 to Q64 of mature CD4 with S60C mutation]”, the “proportion of Hel-C monomer” value in data set [1] (DTT at 10 mM) is given as 50%. In addition, the “effect of DTT on cysteine oxidation” value in data set [1] (DTT at 200 mM) is given as “completely abolished the ability of the peptide to oxidize”. Moreover, in data set [1], the “peptide existing as monomers” value is reported as “less than 10%”; the “oxidation state of the peptide” value is “mixture of monomers and dimers”. For the same substance, the “effect of β-ME on cysteine oxidation” value in data set [1] (β-ME at 200 mM) is “unable to monomerize the peptide completely”. The “mode of binding to gp120 (SPR binding kinetics)” value in data set [4] (both monomeric and trimeric gp120 proteins) is “binds covalently”. Besides, the “binding to recombinant gp120” value in data set [4] (conclusion from EMSA and SPR collectively) was “able to bind recombinant gp120”. Moreover, in data set [2], the “effect on binding of MAb 654-30D to gp120” value is reported as “dose-dependent inhibitory effect”, the “effect on binding of MAb b12 to gp120” value is listed as “dose-dependent inhibitory effect”, the “effect on binding of MAb 2G12 to gp120” value is listed as “did not compete” and the “effect on binding of MAb B4a1 to gp120” value is given as “did not compete”. Besides, in data set [2] (listed as S85C), the “effect on binding of MAb b12 to gp120” value is listed as “appear to block”. For the same substance, in data set [2] (peptide pre-treated with 20 mM DTT), the “relief of Hel-C-mediated inhibition of b12-gp120 binding” value was “complete”. Further, the “relief of Hel-C-mediated inhibition of b12-gp120 binding” value in data set [2] (peptide pre-treated with 20 mM β-mercaptoethanol) is on record as “only partially rescued b12 binding”. The “effect of reducing compounds on the amount of 2G12 bound in the presence or absence of peptide” value in data set [2] (peptide pre-treated with 20 mM β-mercaptoethanol or DTT) is “no effect”. Further, the “peptide associated with excised gp120” value in data set [3] is given as “significant quantity”. Further, the “amount of bound peptide relative to the amount bound in the absence of any reducing compound” value in data set [3] (100 mM DTT) came to 10%. Also, the “mode of binding to gp120 (EMSA)” value in data set [3] (C14-radioactively labeled peptide, denaturing gels, absence and presence of reducing agents) was “binds covalently”. Besides, the “amount of Hel-C bound to gp120” value in data set [3] (increasing amounts of DTT added) was “decreased”.
RRSLWDQ [Hel-S]: in data set [1], the “oxidation state of the peptide” value was “pure monomer”. In addition, in data set [2], the “effect on binding of MAb 654-30D to gp120” value is “did not compete”, the “effect on binding of MAb b12 to gp120” value was “did not compete”, the “effect on binding of MAb 2G12 to gp120” value is given as “did not compete” and the “effect on binding of MAb B4a1 to gp120” value is “did not compete”. Besides, the “effect on binding of MAb b12 to gp120” value in data set [2] (listed as native) was “does not”. In addition, the “peptide associated with excised gp120” value in data set [3] is on record as “no detectable”.

(Values after EP2265632B1, “CD4-RELATED POLYPEPTIDES AND METHODS OF USE” (priority 2008, dated 2009).)
